What was measured:
[1] = tested on: CD31-positive vessel in FaDu tumor; experiment: Effect on CD31-positive vessel in the FaDu subcutaneous model (FIG. 13); format: in vivo, nude mice; conditions: single i.v. administration at 20, 60, and 180 μg/kg, five days after
Experimental: A human squamous cell carcinoma of the head and neck (SCCHN) cell line FaDu, which had been cultured in an RPMI-1640 medium containing 10% FBS, and penicillin-streptomycin (culture medium), was adjusted to a concentration of 5×10^7 cells/mL with culture medium to prepare a cell suspension. The cell suspension was inoculated in a volume of 100 μL into a subcutaneous part of a right flank of nude mice, 6 weeks of ages (CAnN.Cg-Foxnlnu/CrlCrlj, female, Charles River Laboratories Japan, Inc.). Ten days after cell inoculation, the mice were grouped such that averages of the tumor volumes were substantially equal among the groups. The experiment was conducted on groups each consisting of 6 mice. Each test compound was dissolved in DMSO and a solution was stored in the freezer before use. Immediately before the administration, the stock solution was diluted with saline. […] The number of blood vessels in the whole tumor was quantified by counting the CD31-positive objects using inform 2 software (PerkinElmer Inc.) Area of the tumor region was measured by assessing the hematoxylin-staining area using inform 2 software (PerkinElmer Inc.) The number of blood vessels was normalized by the area of the tumor region. […] The ratios of blood vessel number in the test compound-dosing groups compared to non-treat group were calculated with the below formula: […]

[2] = tested on: human fibrosarcoma cell line HT-1080 xenograft; experiment: HT-1080 xenograft as monotherapy (FIG. 17); format: in vivo, athymic mice; conditions: 180 μg/kg i.v. Day 1 and Day 8
Experimental: A human fibrosarcoma cell line HT-1080, which had been cultured in an E-MEM containing 10% FBS, NEAA and antibiotics was adjusted to a concentration of 3×10^7 cells/mL with medium to prepare a cell suspension. The cell suspension was inoculated in a volume of 100 μL into a subcutaneous part of a right flank of athymic mice (CAnN.Cg-Foxnlnu/CrlCrlj, female, 6 weeks old, Charles River Japan Inc.). Six days after cell inoculation (Day 1), the length and the width of a tumor in each mouse were measured by using an electronic digital caliper (Mitutoyo Corporation), so as to calculate the volume of the tumor in accordance with the following calculation formula: […]
On the basis of TV, the mice were randomly grouped (Day 1). Each group was consisted in six mice. Compound (1) was dissolved in DMSO and a solution was stored in the freezer before use. Compound (1) (180 μg/kg) was diluted with saline and intravenously injected on Day 1 and Day 8.

[3] = tested on: human synovial sarcoma cell line HS-SY-II xenograft; experiment: HS-SY-II xenograft model as monotherapy (FIG. 22); format: in vivo, nude mice
Experimental: A human synovial sarcoma cell line HS-SY-II, which had been cultured in a DMEM containing 10% FBS, and penicillin-streptomycin, was adjusted to a concentration of 1×10^8 cells/mL with 50% Geltrex (Thermo Fisher Scientific) in Hanks' Balanced Salt Solution to prepare a cell suspension. The cell suspension was inoculated in a volume of 100 μL into a subcutaneous part of a right flank of nude mice, 5 weeks of ages (CAnN.Cg-Foxnlnu/CrlCrlj, female, Charles River Laboratories Japan Inc.). Thirty days after cell inoculation (Day 1), the shortest diameter and the longest diameter of a tumor in each mouse were measured by using an electronic digital caliper (Digimatic™ caliper, Mitutoyo Corporation), so as to calculate the volume of the tumor in accordance with the following calculation formulae: […]
On the basis of the volumes of tumors obtained on Day 1, the mice were grouped such that averages of the tumor volumes were substantially equal among the groups. The experiment was conducted on groups each consisting of six mice. Compound (1) was dissolved in DMSO and a solution was stored in the freezer before use. Immediately before the administration, the stock solution was diluted with saline. The test compound in saline was intravenously once-weekly administered at 90 μg/kg or 180 μg/kg for 2 weeks (on Day 1 and Day 8).

SMILES: C=C1C[C@@H]2CC[C@@]34C[C@H]5O[C@H]6[C@@H](O3)[C@H]3O[C@H](CC[C@@H]3O[C@H]6C5O4)CC(=O)O[C@@H]3[C@@H](C)[C@@H]4O[C@@H]5C[C@]6(C[C@@H]7O[C@]8(C[C@H](C)[C@@H]9O[C@H](CN)[C@H](O)C[C@@H]9O8)C[C@H](C)[C@@H]7O6)O[C@@H]5C[C@@H]4O[C@H]3C[C@H]3O[C@@H](CC[C@@H]1O2)C[C@@H](C)C3=C (stereo in doubt) [Compound (1)]
- tumor blood vessel number [1]: increased the tumor blood vessel number
- antitumor activity [2]: tumor regression
- antitumor effect ([3]; 90 μg/kg i.v. Day 1 and Day 8): tumor growth delay
- antitumor effect ([3]; 180 μg/kg i.v. Day 1 and Day 8): tumor regression

From patent US20240309014A1, “MACROCYCLIC COMPOUNDS AND USES THEREOF” (President and Fellows of Harvard College, priority 2017, published 2024)
